Here are results for 105 compounds from a melting point compilation (Tetko et al.).

The term melting point denotes the temperature, or range, at which the solid turns liquid.

`C[C@H]1NC(=O)O[C@H]1c1ccccc1` displayed a melting point of 118 to 121 °C.

The compound `S=C=NC12CC3CC(CC(C3)C1)C2` showed a melting point of 166 to 168 °C.

`O=C1c2ccccc2C(=O)c2c(Nc3cccc4c3C(=O)c3ccccc3C4=O)cccc21` had a melting point of 300 °C.

`N#Cc1c([N+](=O)[O-])ccc(Cl)c1Cl`: the melting point lay in the range of 90 to 93 °C.

Compound `Cc1ccncc1CNC(=O)c1ccccc1` showed a melting point of 112 °C.

Turning to `COc1ccccc1NC(=O)CC(C)=O`, the melting point stood at 86 °C.

For the compound `O=C(O)COc1ccc(I)cc1`, the melting point turned out to be 157 °C.

On to `CC(Oc1ccc(Oc2ncc(C(F)(F)F)cc2Cl)cc1)C(=O)O` (stereo not given), for which the melting point came to 108 °C.

Regarding `C[C@]12CCC(=O)C=C1C(=O)C[C@@H]1[C@@H]2CC[C@]2(C)C(=O)CC[C@@H]12`, the melting point was 222 °C.

The compound `NNc1ccc([N+](=O)[O-])cn1` gave a melting point of 206 °C.

`CC(=O)c1sc(-c2ccc(Cl)cc2)cc1N` came in with a melting point of 138 to 140 °C.

`O=C(O)CC1CCCC1` had a melting point of 12 °C.

In the case of `COc1ccc(O)c(C=O)c1`, the melting point turned out to be 14.5 °C.

`Cc1ccc2c(Cl)cc(Cl)c(O)c2n1` yielded a melting point of 114 °C.

As for `S=C(Nc1cccc2ccccc12)Nc1cccc2ccccc12`, the melting point turned out to be 208 °C.

Compound `COc1ccc(-n2ncc(C(=O)Cl)c2C)cc1` registered a melting point of 86 °C.

Compound `N#CCCN1CCN(CCC#N)CC1` gave a melting point of 65 °C.

As for `Cc1c(C)c(C)c(C(=O)c2ccccc2)c(C)c1C`, the melting point amounted to 138 °C.

`COc1cc([N+](=O)[O-])c2ncccc2c1` yielded a melting point of 159 °C.

On to `COC(=O)c1ccc(C(=O)OC)o1`, for which the melting point was 112 °C.

Compound `Cn1c(=O)c(C2=NNC(=O)C2=Cc2ccc3c(c2)OCO3)c(O)c2ccccc21` came in with a melting point of 265 °C.

In the case of `OCCC(F)(F)C(F)(F)C(F)(F)C(F)(F)C(F)(F)C(F)(F)C(F)(F)C(F)(F)F`, the melting point was 46.2 °C.

With `C1=CCC=C1`, the melting point is -85 °C.

Regarding `CC12CCC(=O)CC1(O)CCC2=O` (single isomer, unassigned; (+)), the melting point lay in the range of 110 to 118 °C.

Compound `CC(C)(C)C=C=C=C=CC(C)(C)C` had a melting point of 135 °C.

The compound `Nc1c(C=O)ccc2c1C(=O)c1ccccc1C2=O` came in with a melting point of 228 to 234 °C.

For `O=[N+]([O-])c1ccsc1`, the melting point came out at 78.5 °C.

The compound `NC(=NO)c1ccccc1OC(F)(F)F` had a melting point of 99 to 101 °C.

Turning to `Nc1c(CN2CCCC2)c(=O)oc2ccccc12`, the melting point turned out to be 197 °C.

Compound `Nc1cccc(C(=O)O)c1C(=O)O` returned a melting point of 170 to 180 °C.

Compound `CC1CCC(C(C)C)C(OC(=O)CC#N)C1` (stereo not given) came in with a melting point of 84 °C.

Regarding `Nn1cnc2c(c(Br)nn2C2CCCCC2)c1=O`, the melting point fell in the range of 253 to 254 °C.

`CC(C)=NOCCOC(=O)C(C)Oc1ccc(Oc2cnc3cc(Cl)ccc3n2)cc1` (stereo not given) returned a melting point of 66.3 °C.

As for `Nc1c(C=O)cc(C=O)c2nc(-c3ccccc3)c(-c3ccccc3)nc12`, the melting point was 289 °C.

Take `COc1cc(C(=O)O)cc(OCc2ccccc2)c1OC`: the melting point was 178 °C.

The compound `COC1C(O)C(O)C(O)C(O)C1O` (single isomer, unassigned; (-)) showed a melting point of 190 to 198 °C.

`Cc1cc(C=O)cc(C)c1O` registered a melting point of 114 °C.

The compound `Clc1ccc(/C=C(\Oc2ccc(Cl)cc2Cl)c2nc3ccccc3s2)cc1` came in with a melting point of 156 °C.

`CCC1N(O)C(C)(C)C(C(=O)O)=[N+]1[O-]` (stereo not given) returned a melting point of 98.8 to 99 °C.

For `CCc1nnc(/N=N/c2c(-c3ccccc3)n(C)c3ccccc23)s1`, the melting point came out at 221 °C.

As for `BrCCCOc1ccc2cc3ccc(OCCCBr)cc3nc2c1`, the melting point worked out at 142 °C.

In the case of `O=C(c1ccncc1)N1N=C(c2ccccc2)CC1c1cn(-c2ccccc2)nc1-c1ccccc1` (stereo not given), the melting point fell in the range of 224 to 226 °C.

In the case of `CC(=O)C1(O)CCC2C3CC(C)C4=CC(=O)CCC4(C)C3CCC21C` (stereo not given), the melting point came out at 222 °C.

Compound `COc1ccc(C(=O)CCCCl)c(OC)c1` gave a melting point of 58 to 60 °C.

With `O=Cc1cc2ccccc2n1S(=O)(=O)c1ccccc1`, the melting point was 111 to 112 °C.

In turn, `COn1c(C)c(C(C)=O)c2c3nonc3ccc21` had a melting point of 201 to 203 °C.

For the compound `COc1ccc2cc(C(=O)c3cc4ccc(OC)cc4oc3=O)c(=O)oc2c1`, the melting point was determined as 271 °C.

In turn, `CC(C)(C)c1ccc(N=C=S)cc1` displayed a melting point of 42 °C.

Compound `O=C1C=CC(=O)[C@@H]2Cc3ccccc3C[C@H]12` had a melting point of 127 to 128 °C.

Compound `CC(=O)Nc1ccc(C=Cc2ccc(NC(C)=O)cc2)cc1` gave a melting point of 322 °C.

The compound `O=C(CCl)Nc1ccc(F)c(Cl)c1` yielded a melting point of 96 to 98 °C.

`O=S(=O)(Cl)c1ccc(S(=O)(=O)N2CCOCC2)cc1`: the melting point was 150 to 152 °C.

For the compound `O=C(NNC(=S)NCc1ccccc1)C(=O)c1c[nH]c2ccccc12`, the melting point came to 243 °C.

`CS(=O)(=O)CN1C(=O)NC(c2ccccc2)(c2ccccc2)C1=O` registered a melting point of 196 to 197 °C.

The compound `Cc1cccc(C(C)C)c1O` came in with a melting point of -14.5 °C.

`N#C/C(=N/Nc1ccccc1Cl)c1nc(-c2ccccc2)cs1` came in with a melting point of 160 °C.

The compound `Cc1ccc(S(=O)(=O)CC(=O)c2ccccc2)cc1` showed a melting point of 109 to 110 °C.

Take `Cc1ccccc1Oc1ccccc1`: the melting point came out at 21.7 °C.

`O=S(=O)(c1ccc(O)cc1)c1ccc(O)cc1` returned a melting point of 248 °C.

`N#Cc1c(N=[N+]([O-])c2cnn(-c3ccccc3)c2C#N)cnn1-c1ccccc1` yielded a melting point of 265 °C.

Compound `O=C(NCC[C@H](O)C(=O)O)OCc1ccccc1` displayed a melting point of 72 to 78 °C.

`Cc1n[nH]c2c(=O)n(-c3ccc(Cl)cc3)c(C)nc12`: the melting point fell in the range of 313 to 315 °C.

In turn, `O=C(Cl)c1ncoc1-c1ccccc1` displayed a melting point of 74 to 79 °C.

As for `COC(=O)Nc1nc2cc(C(=O)C3CC3)ccc2[nH]1`, the melting point came out at 250 °C.

For the compound `Cc1cc(-c2onc(C)c2C(=O)O)no1`, the melting point stood at 167 °C.

In the case of `CC1(C)CC(=O)C(=NNc2ccccc2)C(=O)C1`, the melting point turned out to be 148 °C.

In the case of `Cn1c(=O)c(C2=NNC(=O)C2=Cc2cccc(O)c2)c(O)c2ccccc21`, the melting point was found to be 290 °C.

The compound `Cc1ccc(OCCBr)cc1` came in with a melting point of 37 to 38 °C.

In turn, `Cc1cc(C)n2cnnc2n1` returned a melting point of 165 to 167 °C.

On to `O=c1[nH]c2scc(-c3ccccc3)c2c(=O)n1-c1ccccc1`, for which the melting point lay within 305 to 308 °C.

`CCc1c(O)c(=O)ccn1N1CCOCC1` returned a melting point of 258 °C.

`COc1c(C)cc(N)cc1C` yielded a melting point of 64 °C.

Consider `O=C1OS(=O)(=O)c2ccccc21`, for which the melting point was 130 °C.

As for `N#CC1(C(=O)c2ccccc2)C(c2ccccc2)NC(=O)NC1c1ccccc1` (stereo not given), the melting point was 215 to 216 °C.

For the compound `c1ccc2c(c1)C1c3ccccc3C2c2ccccc21`, the melting point turned out to be 254 °C.

In turn, `Ic1cccc(Cn2cccn2)c1` came in with a melting point of 51 to 54 °C.

`O=C(CBr)Nc1ccccc1Cl` registered a melting point of 89 to 91 °C.

Turning to `NS(=O)(=O)c1ccc(Sc2ccc(Cl)cc2)s1`, the melting point fell in the range of 133 to 136 °C.

`Oc1c(Cl)c(Cl)c(O)c(Cl)c1Cl` displayed a melting point of 239 °C.

The compound `Cc1cc(Oc2ncccc2[N+](=O)[O-])cc(C)c1Cl` showed a melting point of 80 to 82 °C.

`O=S(=O)(Cl)c1ccc2c(c1)CCO2` registered a melting point of 84 to 85 °C.

Compound `CC(C)(C)OC(=O)N[C@H](Cc1ccc(C#N)cc1)C(=O)O` displayed a melting point of 153 °C.

For `Nc1cc(Cl)c([N+](=O)[O-])cc1N`, the melting point was 189 to 193 °C.

Compound `CCn1cc(C(=O)O)c(=O)c2cc(F)c(N3CCNCC3)nc21` gave a melting point of 222 °C.

Regarding `O=[N+]([O-])c1cccc(Cl)c1O`, the melting point is 70 °C.

In turn, `c1ccc(-c2ccc(-c3nc4ccc(-c5ccccc5)cc4o3)cc2)cc1` yielded a melting point of 199 to 201 °C.

`O=C1OC(c2ccc(Cl)cc2)=NC1=Cc1ccccc1` registered a melting point of 181 to 182 °C.

As to `CCOC(=O)CCCOc1ccc(Cl)cc1C`, the melting point is -1 °C.

As for `CCCCC(CC)CO` (stereo not given), the melting point is -70 °C.

As for `NNC(=O)c1cnn(-c2ccc(Cl)cc2)c1C(F)(F)F`, the melting point fell in the range of 179 to 181 °C.

For the compound `OCc1cc(CO)cc(OCc2cc(COc3cc(CO)cc(CO)c3)cc(COc3cc(CO)cc(CO)c3)c2)c1`, the melting point came to 144 °C.

With `CCOC(=O)CNc1nc(N)n[nH]1`, the melting point is 177 to 179 °C.

Regarding `Clc1ccc(OCOc2ccc(Cl)cc2)cc1`, the melting point worked out at 70.5 °C.

As for `CC(=O)OC1CC[C@H]2[C@@H]3[C@H](C)CC4CC(=O)CC[C@]4(C)[C@H]3CC[C@]12C` (stereo not given in full), the melting point is 142 °C.

As to `C1CCCCCCCCCCCCC1`, the melting point amounted to 54 °C.

Compound `COc1ccc(N)cc1N` returned a melting point of 67.5 °C.

`Cn1ncc2c(NCCNC3=CC(=O)c4ccccc4C3=O)ncnc21` registered a melting point of 257 °C.

The compound `FC(F)(F)C(Cl)Cl` had a melting point of -107 °C.

Consider `C/C=C/C#N`, for which the melting point is -51.5 °C.

In turn, `Nc1c(C(=O)O)sc2nccnc12` came in with a melting point of 250 °C.

`O=C(O)Cc1n[nH]c(=O)c2ccccc12` yielded a melting point of 220 to 223 °C.

The compound `CC(COc1ccc(C(C)(C)C)cc1)OS(=O)OCCCl` (stereo not given) had a melting point of -31.7 °C.

Consider `NC(=O)c1ccccc1OC(F)(F)F`, for which the melting point was determined as 154 °C.

In the case of `CC1CC2C(C(O)CC3(C)C2CCC3(O)C(=O)CO)C2(C)C=CC(=O)C=C12` (stereo not given), the melting point came out at 233 °C.

In the case of `Nc1c([N+](=O)[O-])cnc2ccccc12`, the melting point is 273 to 275 °C.
